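Tested at 5 concentrations; 48 h exposure; 96-well plates; endpoints linearly interpolated, else capped at highest concentration. GI50 = concentration required for 50% inhibition of growth.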 Active and inactive are the calls of the source. No stated cut-off is given here; in the data, active = GI50 up to about 1.1 µM and inactive = higher.
Legend:
Assay in all cases: NCI anticancer screen, dose series, 48 h
SK-OV-3 = tested on: SK-OV-3
ACHN = tested on: ACHN
HCC 2998 = tested on: HCC 2998
U-251 = tested on: U-251
LOX IMVI = tested on: LOX IMVI
NCI-H226 = tested on: NCI-H226
NCI-H23 = tested on: NCI-H23
786-0 = tested on: 786-0
SR = tested on: SR
OVCAR-5 = tested on: OVCAR-5
A549 = tested on: A549
NCI-H522 = tested on: NCI-H522
HOP-62 = tested on: HOP-62
KM12 = tested on: KM12
OVCAR-8 = tested on: OVCAR-8
SF-295 = tested on: SF-295
A498 = tested on: A498
NCI/ADR-RES = tested on: NCI/ADR-RES

SMILES | GI50 (SK-OV-3) | GI50 (ACHN) | GI50 (HCC 2998) | GI50 (U-251) | GI50 (LOX IMVI) | GI50 (NCI-H226) | GI50 (NCI-H23) | GI50 (786-0) | GI50 (SR) | GI50 (OVCAR-5) | GI50 (A549) | GI50 (NCI-H522) | GI50 (HOP-62) | GI50 (KM12) | GI50 (OVCAR-8) | GI50 (SF-295) | GI50 (A498) | GI50 (NCI/ADR-RES)
CCOc1ccc(/N=N/c2ccc3oc(=O)c(/C(C)=N/NC(=O)CC(=O)Nc4cccc(OC)c4)cc3c2)cc1 | 38.8 µM (inactive) | 21.3 µM (inactive) | 15.6 µM (inactive) | 10.6 µM (inactive) | 17.2 µM (inactive) | > 39.7 µM (inactive) | 17.5 µM (inactive) | 10.5 µM (inactive) | 2.64 µM (inactive) | > 46.6 µM (inactive) | 28.2 µM (inactive) | 21.4 µM (inactive) | 17.9 µM (inactive) | 20.8 µM (inactive) | 18.7 µM (inactive) | 19 µM (inactive) |  | 
CN(C)c1ccc2c(NCCCCCCNc3ccnc4cc(N(C)C)ccc34)ccnc2c1 | > 100 µM (inactive) | 16.2 µM (inactive) | 15.7 µM (inactive) | 5.32 µM (inactive) |  |  | 10.1 µM (inactive) | 20.8 µM (inactive) | 7.73 µM (inactive) | 25.2 µM (inactive) | > 100 µM (inactive) | 6.75 µM (inactive) | 19.2 µM (inactive) | 8.26 µM (inactive) | 7.29 µM (inactive) | 10.7 µM (inactive) | 35.1 µM (inactive) | 
COC(=O)/C(C#N)=C1\CCC(C(=O)OC)N1C (stereo unspecified) | > 100 µM (inactive) |  | > 100 µM (inactive) | > 100 µM (inactive) |  |  | > 100 µM (inactive) | > 100 µM (inactive) | > 100 µM (inactive) |  | > 100 µM (inactive) | > 100 µM (inactive) | > 100 µM (inactive) | > 100 µM (inactive) | > 100 µM (inactive) | > 100 µM (inactive) | > 100 µM (inactive) | 
O=c1c2cc(Br)ccc2nc(-c2ccccc2Cl)n1NCC1(O)OCC(O)C(O)C1O (stereo unspecified) | > 100 µM (inactive) | > 100 µM (inactive) |  | > 100 µM (inactive) | > 100 µM (inactive) | 0.434 µM (active) | > 100 µM (inactive) | > 100 µM (inactive) | 35.6 µM (inactive) | > 100 µM (inactive) | > 100 µM (inactive) | > 100 µM (inactive) | > 100 µM (inactive) | > 100 µM (inactive) | > 100 µM (inactive) | > 100 µM (inactive) | > 100 µM (inactive) | 
COc1cc(OC)c(C2CC=Cc3c(OC)cc(OC)c(OC)c32)cc1OC (stereo unspecified) | > 100 µM (inactive) | > 100 µM (inactive) | > 100 µM (inactive) | > 100 µM (inactive) | > 100 µM (inactive) | > 100 µM (inactive) | > 100 µM (inactive) | > 100 µM (inactive) | > 100 µM (inactive) | > 100 µM (inactive) | > 100 µM (inactive) |  | > 100 µM (inactive) | > 100 µM (inactive) | > 100 µM (inactive) | > 100 µM (inactive) | > 100 µM (inactive) | 
Cc1ccc(-n2nnc3c(NNc4ccccc4)n[nH]c(=O)c32)cc1 |  | > 100 µM (inactive) | > 100 µM (inactive) | 52.1 µM (inactive) | > 100 µM (inactive) | 70 µM (inactive) | 72.1 µM (inactive) | 67.3 µM (inactive) | > 100 µM (inactive) | > 100 µM (inactive) | 55.6 µM (inactive) | 30.2 µM (inactive) | 66.2 µM (inactive) | > 100 µM (inactive) | 49.8 µM (inactive) | 55.2 µM (inactive) |  | 76.7 µM (inactive)
COc1c(C(=O)c2ccc([N+](=O)[O-])cc2)cc(C(C)(C)C)cc1C(C)(C)C | > 100 µM (inactive) | 31.3 µM (inactive) | 24.9 µM (inactive) | 19.1 µM (inactive) | 12.3 µM (inactive) |  | 34.7 µM (inactive) | 40.9 µM (inactive) | 17.1 µM (inactive) | 13.4 µM (inactive) | 31 µM (inactive) | 21.5 µM (inactive) | 49.5 µM (inactive) | 16.9 µM (inactive) | 52.7 µM (inactive) | 39.1 µM (inactive) | 55.8 µM (inactive) | 
C1=N\CCN2CCN(CC/N=C\c3ccc(cc3)OCc3cccc(n3)COc3ccc/1cc3)CC2 | > 50 µM (inactive) | > 50 µM (inactive) |  | > 50 µM (inactive) |  | > 50 µM (inactive) | > 50 µM (inactive) | > 50 µM (inactive) | > 50 µM (inactive) | > 50 µM (inactive) | > 50 µM (inactive) | > 50 µM (inactive) | > 50 µM (inactive) | > 50 µM (inactive) | > 50 µM (inactive) | 46.2 µM (inactive) | > 50 µM (inactive) | > 50 µM (inactive)
COc1cc2ccn3c4cc(OC)c(OC)cc4cc3c2cc1OC | > 100 µM (inactive) | > 100 µM (inactive) | > 100 µM (inactive) | > 100 µM (inactive) |  | > 100 µM (inactive) | > 100 µM (inactive) | 33.5 µM (inactive) | > 100 µM (inactive) | > 100 µM (inactive) | > 100 µM (inactive) | 11.3 µM (inactive) | > 100 µM (inactive) | > 100 µM (inactive) | > 100 µM (inactive) | > 100 µM (inactive) | > 100 µM (inactive) | 
O=[N+]([O-])c1cccc(C2ON2C2CCCCC2)c1 (stereo unspecified) | 35.2 µM (inactive) | 17.5 µM (inactive) | 17.2 µM (inactive) | 3.98 µM (inactive) |  |  | 24.7 µM (inactive) | 17.4 µM (inactive) | 2.4 µM (inactive) | > 100 µM (inactive) | 30.1 µM (inactive) | 17.4 µM (inactive) | 31.1 µM (inactive) | 8.81 µM (inactive) | 17.6 µM (inactive) | > 100 µM (inactive) | 27.4 µM (inactive) | 
N#Cc1ccccc1NC(=O)C(=O)C(C(=O)c1ccncc1)C1OC(=O)c2ccccc21 (stereo unspecified) | > 100 µM (inactive) | > 100 µM (inactive) | > 100 µM (inactive) | > 100 µM (inactive) | > 100 µM (inactive) | > 100 µM (inactive) | > 100 µM (inactive) | > 100 µM (inactive) | > 100 µM (inactive) | > 100 µM (inactive) | > 100 µM (inactive) | > 100 µM (inactive) | > 100 µM (inactive) | > 100 µM (inactive) | > 100 µM (inactive) | > 100 µM (inactive) | > 100 µM (inactive) | 
CCOC(=O)/C(C#N)=C\C=C1/C=CN=C2NCCN21 | > 100 µM (inactive) | 80.9 µM (inactive) | > 100 µM (inactive) | > 100 µM (inactive) | > 100 µM (inactive) | > 100 µM (inactive) | > 100 µM (inactive) | > 100 µM (inactive) | > 100 µM (inactive) |  | > 100 µM (inactive) | > 100 µM (inactive) | > 100 µM (inactive) | > 100 µM (inactive) | > 100 µM (inactive) | > 100 µM (inactive) |  | 
COc1cc(C2C(C(=O)Nc3ccccc3)=C(C)NC(C)=C2C(=O)Nc2ccccc2)ccc1O |  | 98.9 µM (inactive) | 27 µM (inactive) | 48.9 µM (inactive) | > 10 µM (inactive) | 49.3 µM (inactive) | 39.5 µM (inactive) | 37.8 µM (inactive) | 25.9 µM (inactive) | > 100 µM (inactive) | 40.6 µM (inactive) | > 10 µM (inactive) | > 100 µM (inactive) | 31 µM (inactive) | 30.1 µM (inactive) | 49.9 µM (inactive) | > 100 µM (inactive) | 
O=C1C=CC(=O)c2cc(Sc3ccccc3)c(=O)c(Sc3ccccc3)cc21 | 43.2 µM (inactive) | 12.8 µM (inactive) | > 100 µM (inactive) | 46.3 µM (inactive) | > 100 µM (inactive) | > 100 µM (inactive) | 47.2 µM (inactive) | 88.5 µM (inactive) | 25.5 µM (inactive) |  | 56.5 µM (inactive) | 12.4 µM (inactive) | > 100 µM (inactive) | > 100 µM (inactive) | 31.7 µM (inactive) | > 100 µM (inactive) | > 100 µM (inactive) | 
CCCCCC/C(CC(=O)CCC(=O)NCCc1ccccc1)=N\Nc1ccc([N+](=O)[O-])cc1[N+](=O)[O-] | > 100 µM (inactive) | 97.7 µM (inactive) | > 100 µM (inactive) | 97.1 µM (inactive) | 34.7 µM (inactive) | 60.4 µM (inactive) | 45 µM (inactive) | > 100 µM (inactive) | 20.6 µM (inactive) | > 100 µM (inactive) | 87.7 µM (inactive) | 39.9 µM (inactive) | > 100 µM (inactive) | 67.8 µM (inactive) | 89.3 µM (inactive) | > 100 µM (inactive) | 79.8 µM (inactive) | 
COC1=CC(C2c3cc4c(cc3[C@@H](Nc3ccc(F)cc3)C3COC(=O)[C@H]23)OCO4)=CC(=O)C1=O (stereo partly specified) | 4.46 µM (inactive) | 3.1 µM (inactive) | 16.1 µM (inactive) | 2.78 µM (inactive) | 7.78 µM (inactive) | 11.1 µM (inactive) | 2.88 µM (inactive) | 3.29 µM (inactive) | 0.506 µM (active) | 19.9 µM (inactive) | 1.36 µM (inactive) | 4.33 µM (inactive) | 1.61 µM (inactive) | 13.3 µM (inactive) | 10.1 µM (inactive) | 3.21 µM (inactive) | 2.43 µM (inactive) | 
CN(C)c1ccc(-c2cc(O)c3cc4c(cc3n2)OCO4)cc1 |  | > 100 µM (inactive) | > 100 µM (inactive) | > 100 µM (inactive) | > 100 µM (inactive) | > 100 µM (inactive) | > 100 µM (inactive) | > 100 µM (inactive) | > 100 µM (inactive) |  | > 100 µM (inactive) |  | 73.5 µM (inactive) |  | > 100 µM (inactive) | > 100 µM (inactive) | > 100 µM (inactive) | 

— ChEMBL document CHEMBL1201862, “PubChem BioAssay data set” (2004)
